Tests used:
[1] = biological target: T1, COX-1 (Homo sapiens, UniProt P23219); assay: Whole cell cyclooxygenase assay in U-937 cells (COX-1, inhibition of PGE2 production); type: cell-based
T1 construct: human U-937 cells (which specifically express COX-1); endogenous in cells; host or cells: human U-937 cells
Method: Compounds are tested as inhibitors of cyclooxygenase activity in whole cell cyclooxygenase assays. Both of these assays measure prostaglandin E2 synthesis in response to arachidonic acid, using a radioimmunoassay. Cells used for these assays are human osteosarcoma 143 cells (which specifically express COX-2) and human U-937 cells (which specifically express COX-1). In these assays, 100% activity is defined as the difference between prostaglandin E2 synthesis in the absence and presence of arachidonate.
For cyclooxygenase assays, osteosarcoma cells are cultured in 1 mL of media in 24-well multidishes (Nunclon) until confluent (1-2 x 10^5 cells/well). U-937 cells are grown in spinner flasks and resuspended to a final density of 1.5 x 10^6 cells/mL in 24-well multidishes (Nunclon). Following washing and resuspension of osteosarcoma and U-937 cells in 1 mL of HBSS, 1 µL of a DMSO solution of test compound or DMSO vehicle is added, and samples gently mixed. All assays are performed in triplicate. Samples are then incubated for 5 or 15 minutes at 37C, prior to the addition of arachidonic acid. Arachidonic acid (peroxide-free, Cayman Chemical) is prepared as a 10 mM stock solution in ethanol and further diluted 10-fold in HBSS. An aliquot of 10 µL of this diluted solution is added to the cells to give a final arachidonic acid concentration of 10 µM. Control samples are incubated with ethanol vehicle instead of arachidonic acid. Samples are again gently mixed and incubated for a further 10 min. at 37C. For osteosarcoma cells, reactions are then stopped by the addition of 100 µL of 1N HCl, with mixing and by the rapid removal of the solution from cell monolayers. For U-937 cells, reactions are stopped by the addition of 100 µL of IN HCl, with mixing. Samples are then neutralized by the addition of 100 µL of 1N NaOH and PGE2 levels measured by radioimmunoassay.
In the assay, inhibition is determined by measuring the amount of prostaglandin E2 (PGE2) synthesized in the presence of arachidonic acid, COX-1 or COX-2 and a putative inhibitor.
The results for inhibition of PGE2 production may be seen in Table 7.

[2] = biological target: T2, COX-2 (Homo sapiens, UniProt P35354); assay: Whole cell assay for COX-2 using CHO transfected cell lines (inhibition of PGE2 production); type: cell-based
T2 construct: expressed in transfected cells; host or cells: CHO cells stably transfected with pCDNAIII (CHO[hCOX-2])
T2 sequence (P35354 18-604): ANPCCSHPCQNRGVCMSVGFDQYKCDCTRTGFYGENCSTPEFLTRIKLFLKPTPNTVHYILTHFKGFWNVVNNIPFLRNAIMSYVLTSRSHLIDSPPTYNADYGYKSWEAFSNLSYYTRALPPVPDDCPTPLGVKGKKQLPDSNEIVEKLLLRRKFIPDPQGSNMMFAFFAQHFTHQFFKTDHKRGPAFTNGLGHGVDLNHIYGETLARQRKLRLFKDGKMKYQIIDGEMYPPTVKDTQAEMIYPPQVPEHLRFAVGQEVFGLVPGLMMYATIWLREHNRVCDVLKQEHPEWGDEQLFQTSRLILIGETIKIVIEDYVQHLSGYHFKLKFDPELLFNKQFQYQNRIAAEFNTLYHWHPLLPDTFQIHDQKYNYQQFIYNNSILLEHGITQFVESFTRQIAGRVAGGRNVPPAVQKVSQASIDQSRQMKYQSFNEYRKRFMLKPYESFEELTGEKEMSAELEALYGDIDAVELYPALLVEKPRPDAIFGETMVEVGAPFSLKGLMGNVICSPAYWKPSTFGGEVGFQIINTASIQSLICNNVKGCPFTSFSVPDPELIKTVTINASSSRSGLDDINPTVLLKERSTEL
Method: Chinese hamster ovary (CHO) cell lines which have been stably transfected with an eukaryotic expression vector pCDNAIII containing either the human COX-1 or COX-2 cDNA's are used for the assay. These cell lines are referred to as CHO [hCOX-1] and CHO [hCOX-2], respectively. For cyclooxygenase assays, CHO[hCOX-1] cells from suspension cultures and CHO[hCOX-2] cells prepared by trypsinization of adherent cultures are harvested by centrifugation (300 x g, 10 min) and washed once in HBSS containing 15 mM HEPES, pH 7.4, and resuspended in HBSS, 15 mM HEPES, pH 7.4, at a cell concentration of 1.5 x 10^6 cells/ml. […] Cells are then challenged in the presence or absence of drug with the AA/HBSS solution to yield a final concentration of 0.5 µM AA in the CHO[hCOX-1] assay and a final concentration of 10 µM AA in the CHO[hCOX-2] assay. […] Cyclooxygenase activity in the absence of test compounds is determined as the difference in PGE2 levels of cells challenged with arachidonic acid versus the PGE2 levels in cells mock-challenged with ethanol vehicle. Inhibition of PGE2 synthesis by test compounds is calculated as a percentage of the activity in the presence of drug versus the activity in the positive control samples.
In the assay, inhibition is determined by measuring the amount of prostaglandin E2 (PGE2) synthesized in the presence of arachidonic acid, COX-1 or COX-2 and a putative inhibitor. […]

T1 sequence (P23219 24-599): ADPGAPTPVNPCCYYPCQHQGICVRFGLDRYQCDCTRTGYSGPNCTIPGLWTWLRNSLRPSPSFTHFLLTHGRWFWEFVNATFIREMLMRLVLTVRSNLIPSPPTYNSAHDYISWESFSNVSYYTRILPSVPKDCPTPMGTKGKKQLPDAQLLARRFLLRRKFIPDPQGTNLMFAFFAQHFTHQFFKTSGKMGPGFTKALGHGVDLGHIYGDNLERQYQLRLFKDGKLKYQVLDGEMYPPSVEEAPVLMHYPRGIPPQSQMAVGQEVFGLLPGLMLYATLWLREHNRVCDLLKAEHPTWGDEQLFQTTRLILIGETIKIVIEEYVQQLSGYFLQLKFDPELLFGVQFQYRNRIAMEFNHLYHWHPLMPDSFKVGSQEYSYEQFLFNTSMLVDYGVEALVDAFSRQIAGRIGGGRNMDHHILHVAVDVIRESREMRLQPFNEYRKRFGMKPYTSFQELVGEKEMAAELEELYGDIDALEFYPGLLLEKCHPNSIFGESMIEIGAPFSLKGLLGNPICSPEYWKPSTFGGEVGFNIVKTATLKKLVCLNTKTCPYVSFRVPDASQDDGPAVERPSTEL

## C/C(CO)=C1\CC(c2ccc(S(C)(=O)=O)cc2)=C1c1ccccc1 [Example 42]
[1]
  IC50: 1.5 µM
[2]
  IC50: 0.022 µM

## C=C1CC(c2ccc(S(C)(=O)=O)cc2)=C1c1ccccc1 [Example 39, 3-Methylene-1-(4-methylsulfonylphenyl)-2-phenyl-1-cyclobutene]
[1]
  IC50: 1 µM

## CC1(C)C(=O)C(c2ccc(S(C)(=O)=O)cc2)=C1c1ccccc1 [Example 30, 4,4-dimethyl-2-(4-methylsulfonylphenyl)-3-phenyl-2-cyclobuten-1-one]
[1]
  IC50: 1.1 µM

## CC1(c2ccsc2)C(=O)C(c2ccccc2)=C1c1ccc(S(C)(=O)=O)cc1 (stereo not drawn) [Example 6, 4-Methyl-3-(4-methylsulfonylphenyl)-2-phenyl-4-(3-thienyl)-2-cyclobuten-1-one]
[1]
  IC50: 2 µM
[2]
  IC50: 0.025 µM

Source: patent EP0889878B1 (Merck Frosst Canada & Co., priority 1996, dated 1997)
